In brackets after ≈: the same amount, converted by molar mass. Where two headings read alike, the source gives them in different places.
Legend:
MRSE 35984 = test: MIC broth microdilution assay; assay type: cell-based, Staphylococcus epidermidis; settings: Staphylococcus epidermidis, MRSE
MRSA-1 = test: MIC broth microdilution assay; assay type: cell-based, Staphylococcus aureus; settings: Staphylococcus aureus, MRSA; Table 1; read-out: MIC MRSA-1
MRSA BAA-1707 [1] = test: MIC broth microdilution assay; assay type: cell-based, Staphylococcus aureus
VRE 700221 [2] = test: MIC broth microdilution assay; assay type: cell-based, Enterococcus faecium; settings: Enterococcus, VRE
MRSA BAA-1707 [3] = test: MIC assay with metal(II) cation co-treatment; assay type: cell-based, Staphylococcus aureus; settings: Staphylococcus aureus
MRSA-2 = test: MIC broth microdilution assay; assay type: cell-based, Staphylococcus aureus; settings: Staphylococcus aureus, MRSA; Table 1; read-out: MIC MRSA-2
MRSA BAA-44 = test: MIC broth microdilution assay; assay type: cell-based; settings: Staphylococcus aureus; Table 1; read-out: MIC MRSA BAA-44
S. epi 12228 = test: MIC broth microdilution assay; assay type: cell-based, Staphylococcus epidermidis; settings: Staphylococcus epidermidis, 12228; Table 1; read-out: MIC S. epi 12228
MRSA BAA-1707 [4] = test: Calgary Biofilm Device (CBD) MBC/MBEC assay; assay type: cell-based, Staphylococcus aureus; settings: CBD, 24 hours treatment
VRE 700221 [5] = test: Calgary Biofilm Device (CBD) MBC/MBEC assay; assay type: cell-based, Enterococcus faecium; settings: Enterococcus, VRE; CBD, planktonic killing; read-out: VRE 700221 MBC
[6] = Table 1, read-out: MIC MRSE 35984
[7] = Staphylococcus aureus, Table 1, three independent experiments, read-out: MIC MRSA BAA-1707
[8] = Table 1, read-out: MIC VRE 700221
[9] = Staphylococcus aureus, single plate shown as picture, read-out: MIC (µM), MIC Assay against MRSA BAA-1707
[10] = Table 2, MRSA BAA-1707, no metal(II) cation added, read-out: MIC
[11] = copper(II) at 200 µM co-treatment, read-out: MIC w/Cu2+
[12] = iron(II) at 200 µM co-treatment, read-out: MIC w/Fe2+
[13] = magnesium(II) at 200 µM co-treatment, read-out: MIC w/Mg2+
[14] = zinc(II) at 200 µM co-treatment, read-out: MIC w/Zn2+

For Cc1cc(Br)c(O)c2nc3cc(Br)ccc3nc12 [HP 14], the MIC (MRSE 35984; [6]) was 75 µM (≈ 27.6 µg/mL), the MIC (MRSA-1) was 75 µM (≈ 27.6 µg/mL) and the MIC (MRSA BAA-1707 [1]; [7]) was 9.38 µM (≈ 3.45 µg/mL).
In the case of Cc1cccc2nc3c(O)c(Br)cc(C)c3nc12 [HP 5], the MIC (MRSA-1) was 37.5 µM (≈ 11.4 µg/mL), the MIC (VRE 700221 [2]; [8]) was greater than 100 µM and the MIC (MRSA BAA-1707 [1]; [7]) was 9.38 µM (≈ 2.84 µg/mL). The MIC (MRSA BAA-1707 [1]; [9]) was 12.5 µM (≈ 3.79 µg/mL).
C[C@H]1c2cccc(O)c2C(=O)C2=C(O)[C@]3(O)C(=O)C(C(N)=O)=C(O)[C@@H](N(C)C)[C@@H]3[C@@H](O)[C@@H]21 [Doxy., Doxycycline, reference compound] showed an MIC (MRSA BAA-1707 [3]; [10]) of 0.78 µM, an MIC (MRSA BAA-1707 [3]; [11]) of 0.78 µM and an MIC (MRSA BAA-1707 [3]; [12]) of 3.13 µM. It also gave an MIC (MRSA BAA-1707 [3]; [13]) of 0.78 µM and an MIC (MRSA BAA-1707 [3]; [14]) of 0.39 µM.
Molecule Oc1cccc2cccnc12 [8-OHQ, 8-hydroxyquinoline, reference compound] has an MIC (MRSA BAA-1707 [3]) of 9.38 µM, an MIC (MRSA BAA-1707 [3]; read-out: MIC w/Cu2+) of 4.69 µM and an MIC (MRSA BAA-1707 [3]; read-out: MIC w/Fe2+) of 12.5 µM. The MIC (MRSA BAA-1707 [3]; read-out: MIC w/Mg2+) was 6.25 µM and the MIC (MRSA BAA-1707 [3]; read-out: MIC w/Zn2+) was 12.5 µM.
Cc1cc(Br)c(O)c2nc3cccc(Cl)c3nc12 [HP 11] gave an MIC (MRSE 35984; [6]) of 1.56 µM (≈ 0.505 µg/mL), an MIC (MRSA-2) of 3.13 µM (≈ 1.01 µg/mL) and an MIC (VRE 700221 [2]; [8]) of 3.13 µM (≈ 1.01 µg/mL). It also gave an MIC (MRSA BAA-44) of 3.13 µM (≈ 1.01 µg/mL) and an MIC (S. epi 12228) of 1.56 µM (≈ 0.505 µg/mL).
For Cc1ccc2nc3c(Br)cc(Br)c(O)c3nc2c1 [HP 20], the MIC (MRSE 35984; [6]) was 6.25 µM (≈ 2.3 µg/mL), the MIC (MRSA-2) was […] and the MIC (MRSA BAA-44) was […].
For CCc1cc(Br)c2nc3c(C)cc(Br)c(O)c3nc2c1 [HP 10], the MIC (MRSE 35984; [6]) was 37.5 µM (≈ 14.9 µg/mL), the MIC (MRSA-1) was 50 µM (≈ 19.8 µg/mL) and the MIC (VRE 700221 [2]; [8]) was 50 µM (≈ 19.8 µg/mL).
With CCCCc1cc(Br)c(O)c2nc3ccccc3nc12 [HP 2] the MIC (MRSA-2) was 3.13 µM (≈ 1.04 µg/mL), the MIC (MRSA-1) was 0.78 µM (≈ 0.258 µg/mL) and the MIC (VRE 700221 [2]; [8]) was 0.78 µM (≈ 0.258 µg/mL). For the same molecule, the MIC (MRSA BAA-1707 [1]; [7]) was 0.78 µM (≈ 0.258 µg/mL) and the MIC (MRSA BAA-1707 [1]; [9]) was 0.78 µM (≈ 0.258 µg/mL).
In the case of Cc1cc(Br)c(O)c2nc3cc(C(C)(C)C)ccc3nc12 [HP 8], the MIC (MRSE 35984; [6]) was greater than 100 µM, the MIC (MRSE 35984; single plate shown as picture, read-out: MIC (µM), MIC Assay Against MRSE 35984) was greater than 100 µM and the MIC (MRSA-1) was greater than 100 µM. It also gave an MIC (VRE 700221 [2]; [8]) greater than 100 µM, an MIC (MRSA BAA-1707 [1]; [7]) greater than 100 µM and an MIC (MRSA BAA-1707 [1]; Table 1, three independent experiments, read-out: MIC MRSA BAA-1707) greater than 100 µM.
CCCCCCCCCC(=O)N[C@@H](Cc1c[nH]c2ccccc12)C(=O)N[C@H](CC(N)=O)C(=O)N[C@@H](CC(=O)O)C(=O)N[C@@H]1C(=O)NCC(=O)N[C@@H](CCCN)C(=O)N[C@@H](CC(=O)O)C(=O)N[C@H](C)C(=O)N[C@@H](CC(=O)O)C(=O)NCC(=O)N[C@H](CO)C(=O)N[C@@H]([C@H](C)CC(=O)O)C(=O)N[C@@H](CC(=O)c2ccccc2N)C(=O)O[C@@H]1C [daptomycin, reference compound] gave an MIC (MRSE 35984; [6]) of 12.5 µM (≈ 20.3 µg/mL), an MIC (MRSE 35984; Table 3, read-out: MRSE 35984 MIC) of 12.5 µM (≈ 20.3 µg/mL) and an MIC (VRE 700221 [2]; [8]) of 125 µM (≈ 203 µg/mL). The MIC (VRE 700221 [2]; Table 3, read-out: VRE 700221 MIC) was 125 µM (≈ 203 µg/mL), the MIC (MRSA BAA-44) was 18.8 µM (≈ 30.5 µg/mL) and the “MRSA BAA-1707 MBEC” value (MRSA BAA-1707 [4]; biofilm eradication) was greater than 2000 µM. It also gave an MBC (MRSA BAA-1707 [4]; Staphylococcus aureus, 24 h, planktonic killing, read-out: MRSA BAA-1707 MBC) of 125 µM (≈ 203 µg/mL), an MIC (S. epi 12228) of 6.25 µM (≈ 10.1 µg/mL) and an MBC (VRE 700221 [5]) of 375 µM (≈ 608 µg/mL). It also gave an MIC (MRSA BAA-1707 [1]; [7]) of 3.13 µM (≈ 5.07 µg/mL) and an MIC (MRSA BAA-1707 [1]; Staphylococcus aureus, Table 3, read-out: MRSA BAA-1707 MIC) of 3.13 µM (≈ 5.07 µg/mL).
With Cc1ccc2nc3c(O)c(Br)cc(C)c3nc2c1C [HP 7] the MIC (MRSA-1) was 50 µM (≈ 15.9 µg/mL).
For Oc1cccc2nc3ccccc3nc12 [1-OHP, 1-hydroxyphenazine, reference compound], the MIC (MRSA BAA-1707 [3]; [10]) was 250 µM, the MIC (MRSA BAA-1707 [3]; [11]) was 75 µM and the MIC (MRSA BAA-1707 [3]; [12]) was 250 µM. The MIC (MRSA BAA-1707 [3]; [13]) was 250 µM and the MIC (MRSA BAA-1707 [3]; [14]) was greater than 500 µM.

— article PMC5435703 (Scientific Reports, 2017)
